Assay results taken from patent US20150216794A1, “METHODS OF TREATING PAIN ASSOCIATED WITH OSTEOARTHRITIS OF A JOINT WITH A TOPICAL FORMULATION OF A SPIRO-OXINDOLE COMPOUND” (IVAX International GmbH, priority 2014, published 2015).
Several values for one entry are separate records, joined by “and”; a condition that tells them apart may be missing. Equal values may be shown once.

Tests used:
[1] = minipig repeated dermal dosing: spiro-oxindole compound in plasma (LC-MS/MS); type: in vivo, Göttingen minipig; details: minipigs
Method: The study was carried out on minipigs to obtain information on plasma pharmacokinetics, tissue distribution and accumulation, excretion and metabolic profile of the spiro-oxindole compound after daily dermal administration of a pharmaceutical composition of the invention for 20 consecutive days followed by a single dose of [^14C]-spiro-oxindole compound Day 21.
Midazolam was administered on Days 0 and 20 to 3 male minipigs by bolus intravenous injection at a dose level 0.5 mg/kg.
The [^14C]-spiro-oxindole composition was prepared as follows:
Dosages of test formulations were applied with foil and spread using nitrile gloves to form a thin uniform layer to the treatment site.

[2] = test system: complete Freund's adjuvant (CFA) model of inflammatory pain; assay: CFA model of inflammatory pain; type: in vivo, rat; details: topical, dose-response; model not restated (follows CFA paragraph)
[3] = minipig: metabolite profile of urine and bile (UPLC); type: in vivo, Göttingen minipig; details: none consistent with spiro-oxindole compound
Source text: Attempts to separate radioactive components using HPLC with radioactivity detection present in plasma, liver and excreta were unsuccessful due to low radioactivity levels in samples submitted for further analysis.

[4] = domestic pig joint penetration study: concentration in liver tissue; type: in vivo
Method: This study was conducted to evaluate the joint penetration, systemic plasma exposure and tissue distribution of the spiro-oxindole compound in domestic pigs following topical administration of a pharmaceutical composition utilized in the methods of the invention. Fifteen female pigs were used in this study with three pigs in each group. Beginning on Day 1, a pharmaceutical composition of the invention was topically applied to the left radiocarpal joint (carpus) and tibiotarsal joint (hock) twice daily (bid) for 17 days (34 applications) for Groups 1-4 and once daily (qd) for 17 days (17 applications) for Group 5. Pre-dose blood samples (prior to morning dosing) was collected on Days 2, 7, 10, 14 and 17. A full pharmacokinetic sampling was performed on Day 17 (post am dosing) at the following time points: 1, 2, 4, 8 and 12 hr. On the day of necropsy, Day 18, blood was collected prior to euthanasia, each pig was humanely euthanized and dorsal skin and muscle, liver, kidney, heart, lung, brain, intestine, fat, ovaries, urinary bladder, sciatic nerve, and skin, muscle, synovial membrane, and synovial fluid from all 4 joints (2 treated, left carpus and hock, and 2 untreated, right carpus and hock) was collected.
The dose volume (μL/cm^2) for the test pharmaceutical compositions was 3.0 μL/cm^2 for Groups 1, 2, 3 and 5 and 1.0 μL/cm^2 for Group 4.
The following tissue samples were collected after euthanasia: • Dorsal skin and muscle (from the mid-back) • Liver—Left Medial Lobe • Kidney—Right • Heart • Lung—Right diaphragmatic lobe • Brain—Right cerebral hemisphere • Intestine—mid-jejunum • Duodenum (10-15 cm length) from all 6 animals in Groups 1 and 2 • Fat • Ovary—Right • Urinary bladder • Sciatic nerve from both legs • Skin, muscle underlying site of administration and synovial membrane of all 4 joints (treated left carpus and hock and untreated right carpus and hock)

[5] = previous topical clinical studies (PHN and EM) overall; details: human, in vivo
Method: Although not previously studied in patients with osteoarthritis, a topical formulation of the spiro-oxindole compound of the invention has been tested in clinical studies and was well tolerated by patients with postherpetic neuralgia (PHN) and erythromelalgia.
In general, the maximal concentrations of the spiro-oxindole compound following topical application are determined under “maximal use conditions,” taking into consideration such factors as ointment strength, application volume, application surface area, and frequency and duration of dosing.
Nevertheless, the exposure level anticipated in this study is expected to be higher than that observed in any single patient population administered a therapeutic dose a topical pharmaceutical composition of the invention. This study is therefore intended to help in the selection of a topical dose and regimen of a topical pharmaceutical composition of the invention.

NaV1.7 = NaV1.7 (Homo sapiens, UniProt Q15858); assay: block of NaV1.7 (inactivated vs resting state); type: biochemical
Source text: NaV1.7 is expressed primarily in the peripheral nervous system in both sensory and sympathetic neurons (Raymond, C. K., et al., op. cit.). Loss-of-function mutations in SCN9A (the gene encoding the alpha subunit of the NaV1.7 sodium channel) cause a human condition known as congenital indifference to pain characterized by an inability to perceive pain (Cox, J. J., et al., Nature (2006), 444:894-98; Goldberg, Y. P., et al., Clin Genet (2007), 71:311-9). Gain-of-function mutations in SCN9A are associated with inherited erythromelalgia (IEM) (Drenth, J. P., et al., J Invest Dermatology (2005), 124:1333-8), which is characterized by spontaneous or easily evoked severe pain. Furthermore, up to 29% of biopsy-proven cases of idiopathic small-fiber neuropathy manifesting mainly as distal severe pain (Faber, C. G., et al., Ann Neurol (2012), 71:26-39) are associated with gain-of-function NaV1.7 channel mutations.

NaV1.7, sequence (Q15858 whole entry): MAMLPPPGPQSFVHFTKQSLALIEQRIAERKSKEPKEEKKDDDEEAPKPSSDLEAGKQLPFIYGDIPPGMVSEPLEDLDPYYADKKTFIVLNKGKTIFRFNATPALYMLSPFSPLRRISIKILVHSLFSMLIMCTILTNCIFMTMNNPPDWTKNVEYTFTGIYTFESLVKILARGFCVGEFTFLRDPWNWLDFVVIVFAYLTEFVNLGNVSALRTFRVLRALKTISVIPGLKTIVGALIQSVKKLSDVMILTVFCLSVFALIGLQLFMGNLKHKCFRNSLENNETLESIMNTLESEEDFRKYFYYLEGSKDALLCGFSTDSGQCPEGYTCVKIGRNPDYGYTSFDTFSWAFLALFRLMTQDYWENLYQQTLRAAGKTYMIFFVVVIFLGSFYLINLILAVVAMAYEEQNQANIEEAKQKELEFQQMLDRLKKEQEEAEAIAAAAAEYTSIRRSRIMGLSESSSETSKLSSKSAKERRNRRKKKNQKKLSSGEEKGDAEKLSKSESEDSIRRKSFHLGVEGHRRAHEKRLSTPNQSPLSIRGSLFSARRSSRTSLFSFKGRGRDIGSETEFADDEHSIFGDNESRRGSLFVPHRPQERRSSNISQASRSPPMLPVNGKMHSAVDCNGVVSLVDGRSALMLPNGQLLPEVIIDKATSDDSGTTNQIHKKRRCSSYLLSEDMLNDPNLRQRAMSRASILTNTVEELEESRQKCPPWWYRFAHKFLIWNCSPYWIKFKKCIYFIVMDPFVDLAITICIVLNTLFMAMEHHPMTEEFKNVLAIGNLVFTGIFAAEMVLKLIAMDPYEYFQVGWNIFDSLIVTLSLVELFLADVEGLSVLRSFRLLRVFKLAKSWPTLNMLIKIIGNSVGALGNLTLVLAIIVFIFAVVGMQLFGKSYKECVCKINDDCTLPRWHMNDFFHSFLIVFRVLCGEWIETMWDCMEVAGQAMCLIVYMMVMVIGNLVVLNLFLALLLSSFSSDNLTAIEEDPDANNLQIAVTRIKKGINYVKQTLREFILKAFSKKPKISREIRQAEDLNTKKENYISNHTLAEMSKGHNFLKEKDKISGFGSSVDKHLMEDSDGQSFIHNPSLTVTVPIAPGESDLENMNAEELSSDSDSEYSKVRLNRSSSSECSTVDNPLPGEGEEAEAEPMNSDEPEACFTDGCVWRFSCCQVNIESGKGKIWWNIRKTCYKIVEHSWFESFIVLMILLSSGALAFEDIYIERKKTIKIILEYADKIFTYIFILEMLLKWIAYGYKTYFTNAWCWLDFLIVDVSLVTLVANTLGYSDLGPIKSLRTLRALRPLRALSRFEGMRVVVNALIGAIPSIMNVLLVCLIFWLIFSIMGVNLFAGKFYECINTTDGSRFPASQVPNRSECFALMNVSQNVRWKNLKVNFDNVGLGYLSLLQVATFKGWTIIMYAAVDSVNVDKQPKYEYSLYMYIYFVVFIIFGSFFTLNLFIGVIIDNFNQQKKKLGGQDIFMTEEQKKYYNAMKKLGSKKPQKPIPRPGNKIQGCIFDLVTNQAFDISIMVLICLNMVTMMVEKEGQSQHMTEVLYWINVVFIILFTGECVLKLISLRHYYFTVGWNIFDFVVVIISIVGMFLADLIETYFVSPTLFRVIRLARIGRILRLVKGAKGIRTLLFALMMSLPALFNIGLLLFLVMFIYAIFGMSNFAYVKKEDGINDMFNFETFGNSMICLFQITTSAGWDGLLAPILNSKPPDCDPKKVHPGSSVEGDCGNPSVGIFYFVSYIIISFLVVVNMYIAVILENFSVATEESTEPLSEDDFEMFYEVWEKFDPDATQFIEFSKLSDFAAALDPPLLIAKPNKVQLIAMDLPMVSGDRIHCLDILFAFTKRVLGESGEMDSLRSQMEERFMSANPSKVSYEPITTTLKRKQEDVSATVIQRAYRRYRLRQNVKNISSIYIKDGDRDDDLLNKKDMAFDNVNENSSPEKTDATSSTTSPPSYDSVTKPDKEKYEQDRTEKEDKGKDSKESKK

O=C1N(Cc2ccc(C(F)(F)F)o2)c2ccccc2[C@]12COc1cc3c(cc12)OCO3 [spiro-oxindole compound, (S)-1′-{[5-(trifluoromethyl)furan-2-yl]methyl}spiro[furo[2,3-f][1,3]benzodioxole-7,3′-indol]-2′(1′H)one]
Cmax ([1]; male, Göttingen, minipig, plasma, topical or ocular, 70 mg spiro-oxindole compound equivalents ointment/kg, 21 days repeated dermal dosing, read-out: mean maximum observed concentration [Cmax]): 11.7 ng/mL
time post dose at which mean plasma concentrations were maximal ([1]; after last dose (Day 21)): 8 h
apparent steady state achieved ([1]; repeated dermal dosing): between Days 14 and 21
systemic exposure overall (in words) ([1]; repeated dermal dosing): low systemic exposure
dose with greatest effect (highest dose tested) [2]: 8 % (w/w)
minimum effective dose [2]: 2 % (w/w)
radioactive peaks observed by UPLC ([3]; bile (gall bladder contents)): another two peaks
radioactive peaks observed by UPLC ([3]; urine): two distinct peaks
concentration in liver tissue, individual animals ([4]; G1 (#1-#3): 2% composition, 3.0 μL/cm^2 bid 17 days): 17.0 ng/g and 2.2 ng/g and 14.0 ng/g
concentration in liver tissue, individual animals ([4]; G2 (#4-#6): 4% composition, 3.0 μL/cm^2 bid 17 days): 49.1 ng/g and 29.3 ng/g
concentration in liver tissue, individual animals ([4]; G3 (#7-#9): 8% composition, 3.0 μL/cm^2 bid 17 days): 47.2 ng/g and 48.2 ng/g and 21.6 ng/g
concentration in liver tissue, individual animals ([4]; G4 (#10-#12): 8% composition, 1.0 μL/cm^2 bid 17 days): 0.0 ng/g and 39.1 ng/g and 13.0 ng/g
concentration in liver tissue, individual animals ([4]; G5 (#13-#15): 8% composition, 3.0 μL/cm^2 qd 17 days): 3.6 ng/g and 25.1 ng/g and 0.0 ng/g
highest observed individual plasma concentration [5]: 14.5 ng/mL
potency of the block, inactivated state compared with resting state (NaV1.7; NaV1.7): approximately 220 fold
IC50 (NaV1.7; inactivated state): 0.05 µM
IC50 (NaV1.7; resting state): 11.3 µM
